Measured values taken from US9586896B2, “Nitroxyl donors with improved therapeutic index” (Cardioxyl Pharmaceuticals, Inc., priority 2013, dated 2017).
Values after ≈ are worked out from the molar mass of the structure shown. Where two headings read alike, the source gives them in different places.

Key:
[1] = tested on: heart failure canines (tachycardia-pacing model); experiment: Hemodynamic efficacy in heart failure canines (tachycardia-pacing model); type: in vivo, beagle dogs; conditions: for hemodynamic activity relative to CXL-1020: both normal and failing canine models; for hemodynamic effects produced: normal and failing canine models, FIGS. 1-2
Method: The cardiovascular effects of nitroxyl donors were examined by means of pressure-volume (PV) curve (loops) analysis in conscious, sling-restrained beagle dogs. Animals were allowed free access to drinking water and a commercial canine diet under standard laboratory conditions. Fluorescent lighting was provided via an automatic timer for approximately 12 hours per day. On occasion, the dark cycle was interrupted intermittently due to study-related activities. Temperature and humidity were monitored and recorded daily and maintained to the maximum extent possible between 64° F. and 84° F. and 30% to 70%, respectively. The dogs were acclimated for a period of at least 1 week prior to surgery. Following surgery and recovery the animals were acclimated to sling restraint for a period up to 4.5 hours. Animals were fasted overnight prior to surgery.
Once a stable (surgical) plane of anesthesia had been established, a left-thoracotomy was performed (under strict aseptic conditions) and each animal was chronically instrumented with sono-micrometry crystals providing left-ventricular (LV) dimensions/volume. Additionally, a fluid-filled catheter and a solid-state monometer were placed in the left ventricle for pressure monitoring. A fluid-filled catheter was placed in the right ventricle (RV) and the aorta (Ao) for pressure monitoring/test article administration. […] The catheters/wires were aseptically tunneled and externalized between the scapulae. Over the course of the study, fluid-filled catheters were regularly (at least once weekly) flushed with a locking-solution in order to prevent both clotting and bacterial growth (2-3 mL of Taurolidine-Citrate solution, TCS-04; Access Technologies).
Following the cardiovascular instrumentation, the right jugular vein was carefully exposed and cannulated with a bipolar pacing lead/catheter (CAPSUREFIX® Novus; Medtronic). Under fluoroscopic guidance, this pacing lead was advanced normograde into the right ventricle and actively affixed (screwed in) to the apical endocardium. The proximal end of the lead was secured to the pacing device (Kappa 900; Medtronic). Subsequently, the pacemaker was placed/secured in a subcutaneous pocket in the neck.
Following a recovery from surgery and/or sufficient washout period from dosing with a nitroxyl donor, animals were subjected to a 3-week overdrive pacing (210 ppm) protocol aimed to trigger left-ventricular dysfunction/remodeling consistent with the heart failure syndrome. In short, via the implanted pacemaker/right-ventricular lead, the ventricle(s) was asynchronously and continuously paced at 210 beats per minute (bpm). Left-ventricular remodeling (and heart failure induction) were confirmed by both echocardiographic (e.g., ejection fraction (EF)) decrease from about 60% to a target of about 35%, left ventricular (LV) dilatation) and neuro-humoral (e.g., N-terminal pro-brain natriuretic peptide (NT proBNP) elevation to greater than 1800 pM/L from a baseline of about 300 pM/L) changes after approximately 3 weeks of pacing. Echocardiographs and blood samples were collected in the absence of pacing (for at least 15 min).
The animals (normal or heart failure) were studied during treatment with both vehicle (control) and a nitroxyl donor (either CXL-1020, a compound of formula (1) or a compound of formula (2)). At each dosing period, conscious sling-restrained animals were continuously monitored for up to two to three hours. Following hemodynamic stabilization, infusion of the vehicle was started. […] Infusion of the vehicle was continued and after 30 min another (baseline) set of hemodynamic data was collected. Following collection of baseline hemodynamic data, infusion of the nitroxyl donor compound being tested was initiated and derived hemodynamic/functional parameters were obtained/performed at up to four (4) time points selected from the following: at 30, 60, 90, 120, and 180 minutes after the onset of vehicle/test compound infusion. […]

[2] = Solubility by visual assessment in pH 4 buffer; type: physicochemical; conditions: pH 4 citrate buffer, pH 4, aqueous buffer, thermodynamic from solid, shaken 5 minutes
Method: Initially, the solubilities of the compounds of formula (1) and formula (2) were measured by visual assessment at 100 μg/mL and 1000 μg/mL in a pH 4 buffer. The buffer was prepared by mixing 660 mL of Solution A (10.5023 g of citric acid dissolved in 1 L of water) and […] of Solution B (14.7010 g of sodium citrate tribasic dihydrate dissolved in 1 L of water). The pH of the buffer was 3.98 as measured by pH meter. Each compound was shaken for about 5 minutes in the pH 4 buffer solution prepared above at two concentration points (100 μg/mL and 1000 μg/mL) and the solubility was observed visually.

[3] = Solubility in water in the absence of excipients; type: physicochemical; conditions: for solubility thermodynamic: thermodynamic from solid, read-out: equilibrium solubility in water
Method: Additionally, a sample of the compound of formula (1) was prepared in water to determine the approximate solubility of the compound in the absence of excipients (e.g., CAPTISOL®). A concentration of approximately 300 mg/mL was achieved, not accounting for the volume contribution of the compound. The pH of the sample was determined to be 2.8, which was adjusted to the target of 4.0 using 0.1 N NaOH. Upon pH adjustment, precipitation of a small amount of solid was observed. […] A similar analysis was performed for the compound of formula (2). The compound of formula (2) has a solubility of approximately 10 mg/mL.

[4] = In vitro stability (half-life) in dog plasma; type: in vitro ADME; conditions: male, dog plasma pH 7.4, anticoagulant, 37° C., read-out: T1/2 (minutes) Dog
Method: (§1) Compound (1), compound (2), and CXL-1020 were tested for their stability in plasma. The assay system comprised (i) PBS, or plasma from rat, dog or human (at least 3 donors, male, pooled) at pH 7.4, and (ii) for tests conducted in plasma, an anticoagulant (sodium heparin or sodium citrate). Each test compound (5 μM) was incubated in PBS or plasma at 37° C. on a THERMOMIXER® with shaking Three samples (n=3) were taken at each of seven sampling time points: 0, 10, 30, 60, 90, 180 and 360 minutes. The samples were immediately combined with 3 volumes (i.e., 3 times the volume of PBS or plasma) of acetonitrile containing 1% formic acid and an internal standard to terminate the reaction. AB SCIEX API 3000 LC-MS/MS analysis of the test compounds was performed without a standard curve. Half-lives (T1/2) of the test compounds were determined from graphs of the percent remaining values using the peak area response ratio.

[5] = In vitro stability (half-life) in rat plasma; type: in vitro ADME; conditions: male, rat plasma pH 7.4, anticoagulant, 37° C., read-out: T1/2 (minutes) Rat
Method: as §1

[6] = 100 μg/mL, read-out: Solubility (100 μg/mL)
[7] = 1000 μg/mL, read-out: Solubility (1000 μg/mL)
[8] = heart failure canines, i.v. infusion, dose rate 75 (μmol/kg/min [sic])

Structure (SMILES) | hemodynamic activity relative to CXL-1020 [1] | hemodynamic effects produced [1] | solubility at 5 min [2, 6] [µg/mL] | solubility at 5 min [2, 7] [µg/mL] | solubility thermodynamic ([3]; water, no excipients) [µg/mL] | half-life at 5 μM [4] [min] | half-life at 5 μM [5] [min] | HR (% Change from Baseline) ([1]; heart failure canines, i.v. infusion, dose rate 100 (μmol/kg/min [sic])) [%] | EDV (% Change from Baseline) [1, 8] [%] | ESP (% Change from Baseline) [1, 8] [%] | ESPVR (% Change from Baseline) [1, 8] [%] | HR (% Change from Baseline) [1, 8] [%] | PRSW (% Change from Baseline) [1, 8] [%] | SW (% Change from Baseline) [1, 8] [%] | Tau (% Change from Baseline) [1, 8] [%] | pH of the sample in water ([3]; approximately 300 mg/mL in water before pH adjustment) | solubility ([3]; water without excipients, pH 2.8, thermodynamic from solid, water, no excipients, not accounting for the volume contribution of the compound, read-out: concentration achieved in water) [µg/mL] | observed solution concentration by HPLC ([3]; water, after pH adjustment to 4.0 with 0.1 N NaOH) [mg/mL]
CS(=O)(=O)c1cccc(S(=O)(=O)NO)c1 [(2), N-Hydroxy-3-methanesulfonylbenzene-1-sulfonamide] | comparable hemodynamic activity to CXL-1020 | significant enhancement of inotropy and lusitropy, and modest reductions in blood pressure | > 100 | > 1000 | ~10000 (≈ 39.8 mM) | 33 | 20 | – | – | – | – | – | – | – | – | – | – | –
CS(=O)(=O)c1ccccc1S(=O)(=O)NO [CXL-1020, N-hydroxy-2-methanesulfonylbenzene-1-sulfonamide] | – | – | – | – | – | – | – | −0.23 ± 2.25 | – | – | – | – | – | – | – | – | – | –
Cc1ccc(S(=O)(=O)NO)o1 [Compound (1), N-Hydroxy-5-methylfuran-2-sulfonamide] | comparable hemodynamic activity to CXL-1020 | significant enhancement of inotropy and lusitropy, and modest reductions in blood pressure | > 100 | > 1000 | > 100000 | 25 | 40 | – | −9 ± 2 | −17 ± 1 | 29 ± 1 | −6 ± 2 | 22 ± 1 | −9 ± 2 | −16 ± 4 | 2.8 | ≥ 300000 | 268
